A short description of data set [1]: Relaxivity measurement (Bruker Minispec 120, 0.5 T, 39° C.). The format is physicochemical. Conditions: on a per gadolinium basis. The procedure: For some Gd-containing products the relaxivity r1 was measured using a Bruker Minispec 120, at 0.5 T and 39° C.
The conditions of data set [2]: according to the literature (Lauffer R. B. (1990) Magn. Reson. Quart. 2, 65-84); cited from earlier work.

On to `O=C(O)CN1CCN(CC(=O)O)CCN(CC(=O)NCCCN(CCCC[C@H](NC(=O)OCc2ccccc2)C(=O)O)CCCNC(=O)CN2CCN(CC(=O)O)CCN(CC(=O)O)CCN(CC(=O)O)CC2)CCN(CC(=O)O)CC1` [Example 6, N^α-Carbobenzyloxy-N^ε,N^ε-bis-[4-aza-5-oxo-6-(1,4,7,10-tetraazacyclododecyl-4,7,10-triacetate)hexyl]-L-lysine], for which the “Relaxivity r1” value in data set [1] was 8.35 s⁻¹ mM⁻¹. Turning to `O=C([O-])CN1CCN(CC(=O)[O-])CCN(CC(=O)O)CCN(CC(=O)[O-])CC1.[Gd+3]` [Gd-DOTA], the r1 value in data set [2] is 3.4 mM⁻¹ s⁻¹. Consider “Gadolinium Complex of N^□,N^ε,N^ε(a)-Tris-[4-aza-5-oxo-6-(1,4,7,10-tetraazacyclododecol-4,7,10-triacetate)hexyl]-L-lysine [Example 4]”, for which the “Relaxivity r1” value in data set [1] (0.5 T and 39° C.) was determined as 5.25 s⁻¹ mM⁻¹. As for “Gadolinium Complex of N^□,N^□,N^ε,N^ε-Tetrakis-[4-aza-5-oxo-6-(1,4,7,10-tetraazacyclododecyl-4,7,10-triacetate)hexyl]-L-lysine [Example 5]”, in data set [1] (0.5 T and 39° C.), the “Relaxivity r1” value is 8.35 s⁻¹ mM⁻¹.

B1: Example 9: Conjugate of gadolinium complex compound (IVa) with horse heart myoglobin; Gd content 27.9 mol/mol protein (conjugate, UniProt P68082 2-154, looked up)
Myoglobin: GLSDGEWQQVLNVWGKVEADIAGHGQEVLIRLFTGHPETLEKFDKFKHLKTEAEMKASEDLKKHGTVVLTALGGILKKKGHHEAELKPLAQSHATKHKIPIKYLEFISDAIIHVLHSKHPGDFGADAQGAMTKALELFRNDIAAKYKELGFQG
modifications: gadolinium complex IVa conjugate
notes: Conjugate of gadolinium complex compound (IVa) with horse heart myoglobin; Gd content 27.9 mol/mol protein
For the molecule B1, the “Relaxivity r1” value in data set [1] (0.5 T and 39° C.) is 19 s⁻¹ mM⁻¹.

The values above are taken from patent publication US6719958B1, “Polychelants, their complexes with metal ions, their preparation and their uses” (Dibra S.p.A., priority 1996, dated 2004).
